Reference: US5942493A, “LH-RH antagonists having improved action” (ASTA Medica Aktiengesellschaft, priority 1995, dated 1999)
Where two headings read alike, the source gives them in different places. *1 amine or outer side, *2 acyl side, *3 side chain or, on linkers, in order; H or OH if unused. Where a SMILES comes first, the peptide text is derived from it. Side-chain parts run from the residue outwards. [ ]: non-standard residue; d: D form. The star is where a group is joined. NH(4-amidinophenyl) = N=C(N)c1ccc(N*)cc1; dPhe(4-Cl) = N[C@H](Cc1ccc(Cl)cc1)C(=O)O; d2Nal = N[C@H](Cc1ccc2ccccc2c1)C(=O)O; dCit = NC(=O)NCCC[C@@H](N)C(=O)O; d3Pal = N[C@H](Cc1cccnc1)C(=O)O; Suc = O=C(CCC(=O)[*:2])[*:1]

How the values were obtained:
human LH-RH receptor [1] = target: T1, human LH-RH receptor (Homo sapiens, UniProt P30968); assay: Competitive binding test (displacement of [125I] Cetrorelix) on cell clone L3.5/78
T1 construct: expressed in transfected cells
T1 sequence (P30968 1-328): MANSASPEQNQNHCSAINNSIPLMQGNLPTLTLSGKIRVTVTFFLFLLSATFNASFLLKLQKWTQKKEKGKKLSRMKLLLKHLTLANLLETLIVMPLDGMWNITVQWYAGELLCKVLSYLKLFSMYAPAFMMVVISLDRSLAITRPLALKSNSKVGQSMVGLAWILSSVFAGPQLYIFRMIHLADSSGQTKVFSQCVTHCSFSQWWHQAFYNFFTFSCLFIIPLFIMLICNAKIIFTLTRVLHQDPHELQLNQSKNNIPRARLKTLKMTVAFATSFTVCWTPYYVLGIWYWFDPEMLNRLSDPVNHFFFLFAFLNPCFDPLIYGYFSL
Method: Method for the determination of the binding affinity (dissociation constant Kd):
The binding affinity was determined by a competitive binding test ("displacement binding experiment"; Beckers et al. Eur. J. Biochem. 231, 535-543, 1995). The radiolabelled ligand used is [^125 I] Cetrorelix (specific activity 5-10×10^5 dpm/pmol; dissolved in 20% v:v acetonitrile, 0.2% w:v albumin, 0.1% w:v TFA, ~80% v:v aqua). The binding ability of the iodinated peptide is between 60% and 85%. The non-labelled test compounds used are Cetrorelix, Example 1, Example 2 and […] in solution. The substances are employed in concentrations of 0.01 nM-1000 nM (Cetrorelix, Example 1, Example 2) or 0.01 μM-10 μM (Example 56).
The cells of the individual cell clone L3.5/78 verexpressing the human LH-RH receptor which are used for the binding test are removed with PBS/EDTA (PBS without Ca^2+ /Mg^2+ /1 mM EDTA) from a cell culture dish grown under non-confluent conditions, the cell count is determined and the cells are resuspended in incubation medium (Dulbecco's modified Eagle Medium with 4.5 g/l glucose, 10 mM Hepes pH 7.5, 0.5% w:v BSA, 1 g/l bacitracin, 0.1 g/l SBTI, 0.1% w:v NaN3) at a corresponding cell density. 200 μl of silicone/paraffin oil mixture (84/16% by volume) are initially introduced into special 400 μl reaction vessels (Renner, Beckman type) and 50 μl of the cell suspension (2.5×10^5 cells) are pipetted onto it. 50 μl of binding medium containing [^125 I] Cetrorelix and the compound to be tested at the appropriate concentration are added to the cell suspension on the silicone/paraffin oil layer. The mixture is then incubated with rotation for 60 min at 37° C. in a warm cabinet. After this step, it is centrifuged at 9000 rpm (room temperature) for 2 min in the Heraeus Biofuge 15 in the HTA 13.8 rotor. In the course of this, the cells pelletize through the silicone/paraffin oil layer and are thus separated from the binding medium. After centrifugation, the reaction vessels are shock-frozen in liquid N2 and the tip of the reaction vessel (cell pellet) is cut off with a pair of pincers and the tip containing the cell pellet (bound ligand [^125 I] Cetrorelix) and the supernatant (unbound, free ligand [^125 I] Cetrorelix) are transferred to counting tubes. To determine the maximum binding (Bo), no competitor is added. For the determination of non-specific binding, 1 μM unlabelled Cetrorelix is added for competition. At ≤10% of the total binding Bo, the non-specific binding is low. Quantification is carried out in a γ-counter; analysis is carried out using the EBDA/ligand V3.0 programme (McPherson, J. Pharmacol. Methods 14, 213-228, 1985). Plotting in the dose-response graph makes possible the estimation of the IC50 (concentration which causes 50% inhibition of the reaction at the receptor) and the EBDA/ligand programme calculates the dissociation constant Kd [nM] from this.

histamine release = assay: Histamine release in vitro
Water solubility = type: physicochemical
[2] = tested on: testosterone in the blood; assay: Hormone-suppressive action: testosterone suppression in the healthy male rat; type: in vivo
Method: To determine the suppression of testosterone in the blood of healthy male rats, the substance was injected subcutaneously into the right flank of the animals. The dosage was 1.5 mg/kg in the case of Example 1 and Example 2 and 10 mg/kg in the case of Example 56. To check the testosterone values, about 300 μl of blood were taken from the animals from the sublingual vein at the times 0, 2, 4, 8 (only Example 56), 24, 48, 72 and 96 hours, and then every 3 days until the end of suppression. […] Example 56 (10 mg/kg s.c.) suppressed the testosterone level in all 5 animals even after 2 hours and maintained this action for up to 8 hours. At the next measuring point (24 h), the testosterone values rose again (FIG. 6).

human LH-RH receptor [3] = target: T1, human LH-RH receptor; assay: Functional assay: inhibition of LH-RH-stimulated IP3 formation in cell clone L 3.5/78; type: cell-based; conditions: for IC50: stimulation with 10 nM LH-RH, estimated from dose-response curve
Method: Method for the determination of IP3 (D-myo-[…]): a subconfluent culture of the cell clone (L 3.5/78) overexpressing the human LH-RH receptor is washed 1× with PBS, the cells are removed with PBS/EDTA and the cell suspension is pelletted. The cells are resuspended in incubation medium (Dulbecco's modified Eagle Medium with 4.5 g/l of glucose, 10 mM Hepes pH 7.5, 0.5% w:v BSA, 5 mM of LiCl, 1 g/l of bacitracin, 0.1 g/l of SBTI), aliquoted into 1.5 ml reaction vessels and preincubated at 37° C. for 30 min. 4×10^6 cells in a 500 μl volume are needed per measuring point. After the preincubation step, LH-RH (stock solution 0.5 mM in 10 mM tris pH 7.5, 1 mM dithiothreitol, 0.1% w:v BSA/Bachem Art # H4005) are added to the cell suspension at a final concentration of 10 nM. The action of an antagonist is tested by simultaneous addition at the corresponding concentration (for example 0.0316, 0.1, 0.316 etc. up to 100 nM for Example 2). As a negative control, cells without added LH-RH are incubated. After incubation at 37° C. for 15 min, IP3 formed is isolated from the cells by means of trichloroacetic acid (TCA) extraction. To this end, 500 μl of ice-cold 15% (w:v) TCA solution are added to the cell suspension. The resulting precipitate is pelletted by centrifugation at […] in the Heraeus Biofuge 15R centrifuge at 2000×g for 15 min. The supernatant of 950 μl is extracted 3× with 10 vol of cold, water-saturated diethyl ether in a 15 ml vessel standing on ice. After the last extraction step, the solution is adjusted to a pH of 7.5 with 0.5 M NaHCO3 solution.
The determination of the IP3 concentration in the cell extracts is carried out by means of a sensitive competitive binding test using an IP3 binding protein, labelled [^3 H]-IP3 and unlabelled IP3. To this end, an assay kit from Amersham (TRK 1000) is used; the determination is carried out as described in the assay protocol. After carrying out the various steps, 2 ml of scintillator for aqueous samples (Rotiszint Ecoplus) is finally added, the resuspended pellet containing the bound [^3 H]-IP3 is carefully mixed with it, and measured in a β-scintillation counter. The amount of cellular IP3 is calculated using a standard curve and a dose-response curve is set up. The IC50 can be estimated from the inflection point of this curve.

[4] = [125I] Cetrorelix as ligand, single curves of FIG. 1, read-out: binding affinity as the dissociation constant Kd (competition curves of FIG. 1)
[5] = mean values from various experiments, number of experiments in brackets, read-out: Affinity human LH-RH receptor (dissociation constant Kd)
[6] = 10 mg/kg s.c., healthy male rats, all 5 animals

Row | SMILES | Kd (human LH-RH receptor [1]; [4]) | Kd (human LH-RH receptor [1]; [5]) | (IC50) Histamine releage (histamine release) | H2O Solubility (Water solubility) | IC50 (human LH-RH receptor [3]) | further results
1 | CC(=O)N[C@H](Cc1ccc2ccccc2c1)C(=O)N[C@H](Cc1ccc(Cl)cc1)C(=O)N[C@H](Cc1cccnc1)C(=O)N[C@@H](CO)C(=O)N[C@@H](Cc1ccc(O)cc1)C(=O)N[C@H](CCCCNC(=O)C1CNC(=O)N1)C(=O)N[C@@H](CC(C)C)C(=O)N[C@@H](CCCNC(=N)N)C(=O)N1CCC[C@H]1C(=O)N[C@H](C)C(N)=O (single isomer, unassigned) [Example 1, Ac-D-Nal(2)-D(pCl)Phe-D-Pal(3)-Ser-Tyr-D-[ε-N'-(imidazolidin-2-on-4-yl)formyl]-Lys-Leu-Arg-Pro-D-Ala-NH2] | 0.305 nM | 0.306 nM | 31.9 µg/mL | 27 mg/mL | – | –
2 | CC(=O)N[C@H](Cc1ccc2ccccc2c1)C(=O)N[C@H](Cc1ccc(Cl)cc1)C(=O)N[C@H](Cc1cccnc1)C(=O)N[C@@H](CO)C(=O)N[C@@H](Cc1ccc(O)cc1)C(=O)N[C@H](CCCCNC(=O)C1CNC(=O)N1)C(=O)N[C@@H](CC(C)C)C(=O)N[C@@H](CCCNC(=N)N)C(=O)N1CCC[C@H]1C(=O)N[C@H](C)C(N)=O (single isomer, unassigned) [Example 3] | – | 0.17 nM | – | – | – | –
3 | CC(=O)N[C@H](Cc1ccc2ccccc2c1)C(=O)N[C@H](Cc1ccc(Cl)cc1)C(=O)N[C@H](Cc1cccnc1)C(=O)N[C@@H](CO)C(=O)N[C@@H](Cc1ccc(O)cc1)C(=O)N[C@H](CCCNC(N)=O)C(=O)N[C@@H](CC(C)C)C(=O)N[C@@H](CCCNC(=N)N)C(=O)N1CCC[C@H]1C(=O)N[C@H](C)C(N)=O [Cetrorelix, Ac-D-Nal(2)-D-p-Cl-Phe-D-Pal(3)-Ser-Tyr-D-Cit-Leu-Arg-Pro-D-Ala-NH2, reference compound] (Ac-[d2Nal][dPhe(4-Cl)][d3Pal]SY[dCit]LRP[dA]-NH2) | 0.214 nM | 0.202 nM | 9.7 µg/mL | 9 mg/mL | – | (1.5 mg/kg, single dose) testosterone suppression rats ([2]; 1.5 mg/kg, single dose, rats): 144 h
4 | CC(=O)N[C@H](Cc1ccc2ccccc2c1)C(=O)N[C@H](Cc1ccc(Cl)cc1)C(=O)N[C@H](Cc1cccnc1)C(=O)N[C@@H](CO)C(=O)N[C@@H](Cc1ccc(O)cc1)C(=O)N[C@H](CCCCNC(=O)CCC(=O)Nc1ccc(C(=N)N)cc1)C(=O)N[C@@H](CC(C)C)C(=O)N[C@@H](CCCNC(=N)N)C(=O)N1CCC[C@H]1C(=O)N[C@H](C)C(N)=O [Example 2, Ac-D-Nal(2)-D(pCl)Phe-D-Pal(3)-Ser-Tyr-D-[ε-N'-4-(4-amidinophenyl)amino-1,4-dioxobutyl]-Lys-Leu-Arg-Pro-D-Ala-NH2] (Ac-[d2Nal][dPhe(4-Cl)][d3Pal]SY[dK]([Suc-NH(4-amidinophenyl)])LRP[dA]-NH2) | 0.104 nM | – | 17.1 µg/mL | 23 mg/mL | ~0.4 nM | Kd (human LH-RH receptor [1]; quoted in Example 84, read-out: in vitro binding affinity Kd, competitive binding test using [125I]-Cetrorelix): 0.109 nM
5 | CC(=O)N[C@H](Cc1ccc2ccccc2c1)C(=O)N[C@H](Cc1ccc(Cl)cc1)C(=O)N[C@H](Cc1cccnc1)C(=O)N[C@@H](CO)C(=O)N[C@@H](Cc1ccc(O)cc1)C(=O)N[C@H](CCCCNC(=O)CCC(=O)Nc1ccc(C(=N)N)cc1)C(=O)N[C@@H](CC(C)C)C(=O)N[C@@H](CCCNC(=N)N)C(=O)N1CCC[C@H]1C(=O)N[C@H](C)C(N)=O [Example 4] (Ac-[d2Nal][dPhe(4-Cl)][d3Pal]SY[dK]([Suc-NH(4-amidinophenyl)])LRP[dA]-NH2) | – | 0.206 nM | – | – | – | –
6 | N=C(N)c1ccc(NC(=O)CCC(=O)NCCCCC(NC(=O)OCc2ccccc2)C(N)=O)cc1.O=C(O)C(F)(F)F (stereo not shown) [Example 56] | – | 1080 nM | – | – | ~4000 nM | functional character at the LH-RH receptor (human LH-RH receptor [3]; 10 nM LH-RH, IP3 formation): functional antagonists of LH-RH; agonistic activity (stimulation of IP3 synthesis by the substance itself) (human LH-RH receptor [3]; without LH-RH): not possible to determine any agonistic activity; duration of testosterone suppression [2, 6]: up to 8 hours; time at which testosterone level was already suppressed [2, 6]: 2 h
